US9895342B2, “Cannabinoids for use in the treatment of neuropathic pain” (GW Pharma Limited, priority 2011, dated 2018)

Key:
[1] = test system: SNI mice; experiment: Thermal hyperalgesia (Plantar Test Apparatus, paw withdrawal latency) in spared nerve injury mice; assay type: in vivo; settings: for dose-dependence of effect on thermal withdrawal latency: 2.5 vs 5 mg/kg
Experimental: (§1) Peripheral neuropathic pain is produced by multiple etiological factors that initiate a number of diverse mechanisms at different sites and in different disease states. Spared nerve injury (SNI) consists of partial ligation and transaction of the sciatic nerve which evolves in neuropathic pain whose typical manifestations are represented by thermal hyperalgesia and tactile allodynia.
(§2) Chronic pain symptoms are measured through changes in thermoceptive responses (which is indicative of thermal hyperalgesia) using Plantar Test Apparatus (Ugo Basile, Varese, Italy) and in mechanical paw withdrawal threshold (which is indicative of mechanical allodynia) by a Dynamic Plantar Aesthesiometer (Ugo Basile, Varese, Italy). Nociceptive responses were measured before and after surgery in groups of mice differently treated (vehicle or drugs different combinations).
(§3) The cannabinoids tested were CBG, CBC, CBDV, and THCV. […] The cannabinoids were prepared from whole plant extracts of cannabis plants which had been purified. The cannabinoids were dissolved in ringer/0.5% dimethyl sulfoxide (DMSO), for intraperitoneal (i.p.) administration.
(§4) Male CD-1 mice (35-40 g) were housed, 3 per cage, under controlled illumination (12:12 h light:dark cycle; light on 06.00 h) and environmental conditions (room temperature 20-22° C., humidity 55-60%) for at least 1 week before the commencement of experiments. Mouse chow and tap water were available ad libitum. The experimental procedures were approved by the Ethic Committee of the Second University of Naples. Animal care was in compliance with the IASP and European Community (E.C. L358/1 18/12/86) guidelines on the use and protection of animals in experimental research. All efforts were made to minimize animal suffering and to reduce the number of animals used.
(§5) Behavioural testing was performed before surgery to establish a baseline for comparison with post-surgical values. Mononeuropathy was induced according to the method of Bourquin and Decosterd (2006).
(§6) Mice were anaesthetized with sodium pentobarbital (60 mg/kg i.p.). The right hindlimb was immobilized in a lateral position and slightly elevated. Incision was made at mid-thigh level using the femur as a landmark. The sciatic nerve was exposed at mid-thigh level distal to the trifurcation and freed of connective tissue; the three peripheral branches (sural, common peroneal, and tibial nerves) of the sciatic nerve were exposed without stretching nerve structures.
(§7) Both tibial and common peroneal nerves were ligated and transacted together. A micro-surgical forceps with curved tips was delicately placed below the tibial and common peroneal nerves to slide the thread (5.0 silk, Ethicon, Johnson, and Johnson Intl, Brussels, Belgium) around the nerves. A tight ligation of both nerves was performed. The sural nerve was carefully preserved by avoiding any nerve stretch or nerve contact with surgical tools. Muscle and skin were closed in two distinct layers with silk 5.0 sutures.
(§8) Intense, reproducible and long-lasting thermal hyperalgesia and mechanical allodynia-like behaviors are measurable in the non-injured sural nerve skin territory. The SNI model offers the advantage of a distinct anatomical distribution with an absence of co-mingling of injured and non-injured nerve fibers distal to the lesion such as the injured and non-injured nerves and territories can be readily identified and manipulated for further analysis (i.e. behavioral assessment).
(§9) The sham procedure consisted of the same surgery without ligation and transection of the nerves.
(§10) The groups of mice were divided as follows, each cannabinoid tested has its own group of mice:
(§11) The cannabinoids were dosed daily for 14 days. Doses for all cannabinoids tested were: 2.5 and 5.0 mg/Kg. Vehicle solution was 0.5% DMSO in ringer solution.
Thermal hyperalgesia was evaluated by using a Plantar Test Apparatus (Ugo Basile, Varese, Italy). […]

[2] = test system: SNI mice; experiment: Mechanical allodynia (Dynamic Plantar Aesthesiometer, paw withdrawal threshold) in spared nerve injury mice; assay type: in vivo; settings: for mechanical withdrawal, course over time: 5.0 mg/kg, day 7 to day 14; for MECHANICAL WITHDRAWAL THRESHOLD: SNI mice; for overall efficacy, mechanical withdrawal: both of the doses tested (2.5 and 5 mg/kg)
Experimental: as §1, §2, §3, §4, §5, §6, §7, §8, §9, §10, §11
Mechanical allodynia was measured by using Dynamic Plantar Anesthesiometer (Ugo Basile, Varese, Italy). […]

[3] = test system: chronic constriction injury of the rat sciatic nerve; settings: administered as a purified compound; Costa et al., 2004; cited from earlier work
[4] = SNI mice, 2.5 mg/kg i.p. daily, DAY 3
[5] = SNI mice, 2.5 mg/kg i.p. daily, DAY 7
[6] = SNI mice, 2.5 mg/kg i.p. daily, DAY 14
[7] = SNI mice, 5 mg/kg i.p. daily, DAY 3
[8] = SNI mice, 5 mg/kg i.p. daily, DAY 7
[9] = SNI mice, 5 mg/kg i.p. daily, DAY 14

For CCCCCc1cc(O)c2c(c1)OC(C)(CCC=C(C)C)C=C2 (stereo not shown) [CBC, cannabichromene], the “overall efficacy, thermal withdrawal” value ([1]; 2.5 mg/kg) was “relatively ineffective”, the “THERMAL WITHDRAWAL LATENCY” value ([1]; 5.0 mg/kg, day 3) was “able to increase the amount of time before the animal withdrew its paw” and the “dose-dependence of effect on thermal withdrawal latency” value (“dose-dependence of effect” for short) [1] was “do not appear to be dose-dependent”. For the same molecule, the “THERMAL WITHDRAWAL LATENCY” value [1, 4] was 3.7 s, the “THERMAL WITHDRAWAL LATENCY” value [1, 5] was 4.8 s and the “THERMAL WITHDRAWAL LATENCY” value [1, 6] was 5.2 s. For the same molecule, the “THERMAL WITHDRAWAL LATENCY” value [1, 7] was 6.0 s, the “THERMAL WITHDRAWAL LATENCY” value [1, 8] was 7.0 s and the “THERMAL WITHDRAWAL LATENCY” value [1, 9] was 7.2 s. The “mechanical withdrawal, course over time” value [2] was “large increase at day 7; however this latency decreased again at the 14 day time point”, the “MECHANICAL WITHDRAWAL THRESHOLD” value ([2]; 2.5 mg/kg i.p. daily, DAY 3) was 2.4 g and the “MECHANICAL WITHDRAWAL THRESHOLD” value ([2]; 2.5 mg/kg i.p. daily, DAY 7) was 4.5 g. The “MECHANICAL WITHDRAWAL THRESHOLD” value ([2]; 2.5 mg/kg i.p. daily, DAY 14) was 5.0 g, the “MECHANICAL WITHDRAWAL THRESHOLD” value ([2]; 5 mg/kg i.p. daily, DAY 3) was 5.1 g and the “MECHANICAL WITHDRAWAL THRESHOLD” value ([2]; 5 mg/kg i.p. daily, DAY 7) was 9.7 g. For the same molecule, the “MECHANICAL WITHDRAWAL THRESHOLD” value ([2]; 5 mg/kg i.p. daily, DAY 14) was 5.2 g and the “overall efficacy, mechanical withdrawal” value [2] was “relatively ineffective”.

For C=C(C)[C@@H]1CCC(C)=C[C@H]1c1c(O)cc(CCCCC)cc1O [CBD, cannabidiol, reference compound], the “relief of neuropathic pain” value [3] is given as “can partially relieve neuropathic pain”, the “overall efficacy, thermal withdrawal” value ([1]; 2.5 mg/kg) is given as “relatively ineffective” and the “THERMAL WITHDRAWAL LATENCY” value ([1]; 5.0 mg/kg, day 3) is given as “able to increase the amount of time before the animal withdrew its paw”. For the same molecule, the “dose-dependence of effect” value [1] was “do not appear to be dose-dependent”, the “THERMAL WITHDRAWAL LATENCY” value [1, 4] was 3.5 s and the “THERMAL WITHDRAWAL LATENCY” value [1, 5] was 4.2 s. For the same molecule, the “THERMAL WITHDRAWAL LATENCY” value [1, 6] was 5.6 s, the “THERMAL WITHDRAWAL LATENCY” value [1, 7] was 5.8 s and the “THERMAL WITHDRAWAL LATENCY” value [1, 8] was 7.0 s. The “THERMAL WITHDRAWAL LATENCY” value [1, 9] was 7.5 s, the “mechanical withdrawal, course over time” value [2] was “large increase at day 7; however this latency decreased again at the 14 day time point” and the “MECHANICAL WITHDRAWAL THRESHOLD” value ([2]; 2.5 mg/kg i.p. daily, DAY 3) was 2.2 g. For the same molecule, the “MECHANICAL WITHDRAWAL THRESHOLD” value ([2]; 2.5 mg/kg i.p. daily, DAY 7) was 4.8 g, the “MECHANICAL WITHDRAWAL THRESHOLD” value ([2]; 2.5 mg/kg i.p. daily, DAY 14) was 5.2 g and the “MECHANICAL WITHDRAWAL THRESHOLD” value ([2]; 5 mg/kg i.p. daily, DAY 3) was 5.0 g. For the same molecule, the “MECHANICAL WITHDRAWAL THRESHOLD” value ([2]; 5 mg/kg i.p. daily, DAY 7) was 8.6 g, the “MECHANICAL WITHDRAWAL THRESHOLD” value ([2]; 5 mg/kg i.p. daily, DAY 14) was 5.3 g and the “overall efficacy, mechanical withdrawal” value [2] was “relatively ineffective”.

With C=C(C)[C@@H]1CCC(C)=C[C@H]1c1c(O)cc(CCC)cc1O [CBDV, cannabidivarin] the “overall efficacy, thermal withdrawal” value ([1]; 2.5 mg/kg) was “good efficacy”, the “overall efficacy, thermal withdrawal” value ([1]; 5.0 mg/kg) was “most effective” and the “THERMAL WITHDRAWAL LATENCY” value ([1]; 5.0 mg/kg, 14 days) was “large increase”. For the same molecule, the “dose-dependence of effect” value [1] was “dose-dependent effects were observed”, the “THERMAL WITHDRAWAL LATENCY” value [1, 4] was 3.8 s and the “THERMAL WITHDRAWAL LATENCY” value [1, 5] was 6.4 s. For the same molecule, the “THERMAL WITHDRAWAL LATENCY” value [1, 6] was 6.5 s, the “THERMAL WITHDRAWAL LATENCY” value [1, 7] was 4.0 s and the “THERMAL WITHDRAWAL LATENCY” value [1, 8] was 7.2 s. The “THERMAL WITHDRAWAL LATENCY” value [1, 9] was 11.0 s, the “ability to treat neuropathic pain compared with CBD” value ([1]; thermal withdrawal data) was “superior to CBD” and the “mechanical withdrawal latency” value ([2]; 2.5 mg/kg, day 3) was “dramatic increase”. The “MECHANICAL WITHDRAWAL THRESHOLD” value ([2]; 2.5 mg/kg i.p. daily, DAY 3) was 6.8 g, the “MECHANICAL WITHDRAWAL THRESHOLD” value ([2]; 2.5 mg/kg i.p. daily, DAY 7) was 7.0 g and the “MECHANICAL WITHDRAWAL THRESHOLD” value ([2]; 2.5 mg/kg i.p. daily, DAY 14) was 7.8 g. For the same molecule, the “MECHANICAL WITHDRAWAL THRESHOLD” value ([2]; 5 mg/kg i.p. daily, DAY 3) was 6.7 g, the “MECHANICAL WITHDRAWAL THRESHOLD” value ([2]; 5 mg/kg i.p. daily, DAY 7) was 6.6 g and the “MECHANICAL WITHDRAWAL THRESHOLD” value ([2]; 5 mg/kg i.p. daily, DAY 14) was 7.7 g. The “overall efficacy, mechanical withdrawal” value [2] was “highest mechanical withdrawal latency of all the cannabinoids” and the “ability to treat neuropathic pain compared with CBD” value ([2]; mechanical withdrawal data) was “superior to CBD”.
